Laboratory results as given in patent US20260263425A1, “USE OF COMPOSITION CONTAINING CANDESARTAN OR AZILSARTAN” (GACHON UNIVERSITY OF INDUSTRY-ACADEMIC COOPERATION …, priority 2023, published 2026).

Experiments:
[1] = tested on: HepG2 cells; assay: Intracellular Ca2+ level and lipid accumulation in palmitic acid-treated HepG2 cells (confocal microscopy, fluorescent dyes); assay type: cell-based, Human; conditions: for lipid accumulation: palmitic acid-treated HepG2, BODIPY; for fluorescence intensity for intracellular Ca2+: palmitic acid-treated HepG2, Calbryte 630 AM
Description: Subsequently, to determine whether ARBs can regulate intracellular Ca^2+ levels and lipid accumulation in HepG2 cells treated with palmitic acid, the effects of ARBs were evaluated using confocal microscopy and the fluorescent dyes Calbryte 630 AM (for intracellular Ca^2+) and BODIPY (for lipids).
Specifically, for intracellular Ca^2+ concentration and lipid accumulation, HepG2 cells were plated on slide glasses, treated with 0.5 mM palmitic acid for 16 hours, and incubated with 4 μM Fura-2-AM (Teflabs), […] Calbryte 630 AM, or […] BODIPY in PBS for 30 minutes at 37° C. in the dark. The cells were then washed with PBS for 10 minutes. Subsequently, the cells were counterstained with 4,6-diamidino-2-phenylindole (DAPI) to visualize nuclei. After mounting, the stained slides were imaged using a Zeiss LSM 700 or Zeiss LSM 980 laser scanning confocal microscope (Carl Zeiss) and analyzed using ZEN 2010 Software (Carl Zeiss). Intracellular Ca^2+ was quantified from the microscopic images using the NIH ImageJ software (https://imagej.nih.gov/ij/, 1997-2017). […]

[2] = tested on: HepG2 cells; assay: Insulin-stimulated phosphorylation of Akt and downstream molecules in palmitic acid-treated HepG2 cells (immunoblot); assay type: cell-based, Human; conditions: HepG2, 0.5 mM palmitic acid 16 h, ARB 5, 10, 20 μM; dose-dependent
Description: Tissues and cells were lysed using a modified RIPA buffer (50 mM Tris-HCl pH 7.4, 1% Triton X-100, 150 mM NaCl, 1 mM EDTA; Cell Signaling Technology) freshly supplemented with 1 mM Na3VO4, […], and protease inhibitor cocktail (Complete Mini, Roche). Equal amounts of proteins were separated on 4-12% gels and electrophoretically transferred to polyvinylidene difluoride (PVDF) membranes. Immunoblots were visualized with horseradish peroxidase-conjugated secondary antibodies and enhanced chemiluminescence kits (ECL kits; GE Healthcare Life Sciences) using a charge-coupled device camera (Amersham ImageQuant 800). Specifically, nine FDA-approved ARBs (losartan, eprosartan, fimasartan, irbesartan, olmesartan, telmisartan, valsartan, azilsartan, and candesartan) commonly prescribed for the treatment of hypertension in human patients were administered to HepG2 cells at various concentrations (5 μM, 10 μM, and 20 μM) in combination with 0.5 mM palmitic acid for 16 hours. Then, the insulin-stimulated phosphorylation of the key insulin signaling molecule Akt and its downstream signaling molecules GSK3β and FOXO3 was investigated. The results of Example 1 indicate that azilsartan and candesartan have beneficial off-target effects on insulin signaling and intracellular Ca^2+ homeostasis that are distinct from their known effects as angiotensin receptor blockers. […]

[3] = tested on: AKT PH domain; assay: Insulin-stimulated membrane localization of AKT PH domain in palmitic acid-treated HepG2 cells; assay type: cell-based, Human; conditions: 100 nM insulin 15 min, AKT PH mCherry
Description: One mechanism of insulin resistance is that, in the state of obesity and diabetes, an increase in the concentration of calcium in the cytoplasm leads to calcium binding to PI(3, 4, 5)P3 present in the cell membrane, generating Ca^2+-PI(3, 4, 5)P3, which inhibits binding to the PH domain of AKT and suppresses AKT protein activity, thereby inducing insulin resistance. Accordingly, it was evaluated whether azilsartan and candesartan, which were shown in the above examples to attenuate palmitic acid-induced intracellular Ca^2+ overload, regulate the intracellular localization of the AKT PH domain, which functions as a biosensor for PI(3, 4, 5)P3.
(§1) Specifically, CHO cells or HepG2 cells were transfected with cDNA encoding hAKT PHD (residues 1 to 144) using Lipofectamine (Life Technologies). To monitor the intracellular localization of endogenous AKT, liver sections were antigen activated with 10 mM Tris/HCl (pH 9.0) for 20 minutes, treated with serum-free protein blocking solution (DAKO) for 30 minutes, and permeabilized with 0.5% Tween 20 for 15 minutes. The liver sections were then incubated with anti-AKT PHD antibody (SKB1, #05-591, Sigma-Aldrich) and FITC-conjugated secondary antibody. After mounting, the liver sections were imaged with an LSM 980 laser scanning confocal microscope (Carl Zeiss), and the images were analyzed using ZEN software (Carl Zeiss).
When administering azilsartan or candesartan to cells, the impairment induced by palmitic acid was recovered.

[4] = tested on: AKT PH domain; assay: Insulin-stimulated membrane localization of AKT PH domain in PMA-treated CHO-IR cells; assay type: cell-based, Chinese hamster
Description: as §1, with “Zeiss). Similarly, in phorbol myristate acetate (PMA)-treated Chinese hamster ovary-insulin receptor (CHO-IR) cells, it was confirmed that insulin-stimulated membrane localization of the AKT PH domain was rescued by treatment with azilsartan or candesartan (FIG. 3b).” for “Zeiss).”

[5] = tested on: HFD-fed mice; assay: Postprandial phosphorylation of AKT and downstream substrates in HFD-fed mice; assay type: in vivo; conditions: fasted overnight, re-fed HFD 4 hours
Description: Tissues and cells were lysed using a modified RIPA buffer (50 mM Tris-HCl pH 7.4, 1% Triton X-100, 150 mM NaCl, 1 mM EDTA; Cell Signaling Technology) freshly supplemented with 1 mM Na3VO4, […], and protease inhibitor cocktail (Complete Mini, Roche). Equal amounts of proteins were separated on 4-12% gels and electrophoretically transferred to polyvinylidene difluoride (PVDF) membranes. Immunoblots were visualized with horseradish peroxidase-conjugated secondary antibodies and enhanced chemiluminescence kits (ECL kits; GE Healthcare Life Sciences) using a charge-coupled device camera (Amersham ImageQuant 800). To elucidate the role of candesartan on insulin signaling in vivo, mice were fasted overnight and then re-fed an HFD for 4 hours, and postprandial phosphorylation of AKT and its downstream signaling substrates FOXO1A, FOXO3A, GSK3B, and AS160 was measured.

Row | Structure (SMILES) | lipid accumulation [1] | fluorescence intensity for intracellular Ca2+ [1] | insulin-stimulated phosphorylation of Akt, GSK3B, and FOXO3 [2] | palmitic acid-induced impairment of insulin-stimulated membrane localization of the AKT PH domain [3] | insulin-stimulated membrane localization of the AKT PH domain [4] | postprandial phosphorylation of AKT, FOXO1A, FOXO3A, GSK3B, and AS160, increase compared to the control group [5]
1 | CCOc1nc2cccc(C(=O)O)c2n1Cc1ccc(-c2ccccc2-c2nc(=O)o[nH]2)cc1 [azilsartan] | significantly reduced | significantly reduced | completely restored | recovered | rescued | 
2 | CCOc1nc2cccc(C(=O)O)c2n1Cc1ccc(-c2ccccc2-c2nnn[nH]2)cc1 [candesartan] |  |  |  |  |  | 4- to 10 fold
3 | CCCCc1ncc(/C=C(\Cc2cccs2)C(=O)O)n1Cc1ccc(C(=O)O)cc1 [eprosartan] | did not significantly affect | did not significantly affect |  | did not rescue |  | 
4 | CCCCC1=NC2(CCCC2)C(=O)N1Cc1ccc(-c2ccccc2-c2nnn[nH]2)cc1 [irbesartan] | did not significantly affect | did not significantly affect |  | did not rescue |  | 
5 | CCCCc1nc(Cl)c(CO)n1Cc1ccc(-c2ccccc2-c2nn[nH]n2)cc1 [losartan] | did not significantly affect | did not significantly affect |  | did not rescue |  | 
6 | CCCc1nc2c(C)cc(-c3nc4ccccc4n3C)cc2n1Cc1ccc(-c2ccccc2C(=O)O)cc1 [telmisartan] | did not significantly affect | did not significantly affect |  | did not rescue |  | 
